Measurements: ChEMBL document CHEMBL3102787, “Linear propargylic alcohol functionality attached to the indazole-7-carboxamide as a JAK1-specific linear probe group” (Bioorg Med Chem, 2014)

Columns and labels:
[1] = target: T1, Tyrosine-protein kinase JAK3 (Homo sapiens) (UniProt P52333); details: at 10 µM
T1 sequence (whole entry): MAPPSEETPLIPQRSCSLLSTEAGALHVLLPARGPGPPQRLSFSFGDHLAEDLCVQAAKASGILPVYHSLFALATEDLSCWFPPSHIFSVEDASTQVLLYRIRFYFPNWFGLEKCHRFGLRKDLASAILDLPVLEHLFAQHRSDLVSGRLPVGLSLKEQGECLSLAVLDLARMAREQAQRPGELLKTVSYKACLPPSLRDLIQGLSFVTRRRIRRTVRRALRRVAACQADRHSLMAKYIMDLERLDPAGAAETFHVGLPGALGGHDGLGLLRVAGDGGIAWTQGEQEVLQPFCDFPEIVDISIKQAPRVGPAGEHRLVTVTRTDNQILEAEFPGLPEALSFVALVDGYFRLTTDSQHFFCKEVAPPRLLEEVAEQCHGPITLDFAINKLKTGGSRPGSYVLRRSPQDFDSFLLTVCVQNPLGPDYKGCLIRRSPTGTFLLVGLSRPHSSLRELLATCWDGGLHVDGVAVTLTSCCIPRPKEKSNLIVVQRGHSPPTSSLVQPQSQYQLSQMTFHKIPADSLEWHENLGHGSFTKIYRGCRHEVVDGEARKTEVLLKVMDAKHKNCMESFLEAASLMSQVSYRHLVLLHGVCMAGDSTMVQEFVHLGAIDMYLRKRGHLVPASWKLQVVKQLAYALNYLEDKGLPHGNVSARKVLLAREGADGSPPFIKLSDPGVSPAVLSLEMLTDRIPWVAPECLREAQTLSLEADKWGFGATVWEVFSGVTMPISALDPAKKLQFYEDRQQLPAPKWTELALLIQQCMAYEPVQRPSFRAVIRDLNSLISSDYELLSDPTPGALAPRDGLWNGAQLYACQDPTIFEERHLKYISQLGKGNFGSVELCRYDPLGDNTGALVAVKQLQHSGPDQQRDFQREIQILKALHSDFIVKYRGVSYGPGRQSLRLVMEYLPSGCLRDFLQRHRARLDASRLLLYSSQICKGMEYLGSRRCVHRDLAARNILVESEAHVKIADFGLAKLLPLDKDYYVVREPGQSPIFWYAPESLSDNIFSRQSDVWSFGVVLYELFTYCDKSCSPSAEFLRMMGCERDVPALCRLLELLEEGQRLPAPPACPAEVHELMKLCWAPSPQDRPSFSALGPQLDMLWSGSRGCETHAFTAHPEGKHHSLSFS
Description: Inhibition of JAK3 (unknown origin) at 10 uM

[2] = target: Tyrosine-protein kinase JAK2 (Homo sapiens) (UniProt O60674); details: at 10 µM
Sequence of Tyrosine-protein kinase JAK2 (Homo sapiens) (O60674 whole entry): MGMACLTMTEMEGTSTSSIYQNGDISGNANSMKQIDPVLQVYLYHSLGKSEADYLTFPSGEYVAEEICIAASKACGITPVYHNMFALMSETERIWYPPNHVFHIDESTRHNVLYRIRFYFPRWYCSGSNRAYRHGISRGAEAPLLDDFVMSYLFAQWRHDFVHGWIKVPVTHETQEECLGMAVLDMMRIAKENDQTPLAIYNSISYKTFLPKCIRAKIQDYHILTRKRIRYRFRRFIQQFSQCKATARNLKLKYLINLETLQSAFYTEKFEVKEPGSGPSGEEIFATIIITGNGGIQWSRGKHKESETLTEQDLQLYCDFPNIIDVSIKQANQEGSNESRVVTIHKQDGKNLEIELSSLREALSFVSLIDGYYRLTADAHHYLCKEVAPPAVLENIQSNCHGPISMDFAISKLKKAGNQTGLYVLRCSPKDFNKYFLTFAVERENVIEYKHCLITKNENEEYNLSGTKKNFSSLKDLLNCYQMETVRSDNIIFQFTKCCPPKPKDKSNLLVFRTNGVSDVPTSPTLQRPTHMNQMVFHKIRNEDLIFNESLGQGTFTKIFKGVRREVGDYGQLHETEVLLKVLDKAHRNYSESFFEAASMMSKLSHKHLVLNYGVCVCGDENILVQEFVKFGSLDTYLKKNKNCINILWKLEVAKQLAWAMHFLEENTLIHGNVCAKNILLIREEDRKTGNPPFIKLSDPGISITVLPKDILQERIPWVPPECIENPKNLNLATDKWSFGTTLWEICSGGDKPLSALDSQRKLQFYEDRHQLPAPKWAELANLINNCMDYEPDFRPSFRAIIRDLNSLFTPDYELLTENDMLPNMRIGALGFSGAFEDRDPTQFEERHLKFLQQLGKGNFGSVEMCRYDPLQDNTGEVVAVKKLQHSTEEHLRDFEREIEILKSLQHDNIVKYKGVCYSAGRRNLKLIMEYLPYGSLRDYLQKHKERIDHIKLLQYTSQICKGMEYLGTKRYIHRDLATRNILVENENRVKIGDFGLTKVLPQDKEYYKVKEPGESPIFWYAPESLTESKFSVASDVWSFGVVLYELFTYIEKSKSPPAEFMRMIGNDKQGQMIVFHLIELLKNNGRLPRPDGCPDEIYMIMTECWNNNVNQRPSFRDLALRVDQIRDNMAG
Description: Inhibition of JAK2 (unknown origin) at 10 uM

SMILES | inhibition [1] | inhibition [2]
NC(=O)c1cc(-c2cc(N)cc3[nH]ncc23)cc2c(C#CCCO)n[nH]c12 | 48.1% | 2.5%
NC(=O)c1cc(-c2cccc3[nH]ncc23)cc2c(C#CCCO)n[nH]c12 | 32.3% | 6.7%
NC(=O)c1cc(-c2cc(N)cc3[nH]ncc23)cc2c(C#CCO)n[nH]c12 | 38.1% | -0.4%
NC(=O)c1cc(-c2cccc3[nH]ncc23)cc2c(C#CCO)n[nH]c12 | 24.9% | 2.2%

More lines, now with the values ahead:

inhibition [1] | inhibition [2] | SMILES
15.7% | 9.1% | NC(=O)c1cc(-c2cc(N)cc3[nH]ncc23)cc2cn[nH]c12
22.5% | 1.2% | NC(=O)c1cc(-c2cccc3[nH]ncc23)cc2cn[nH]c12
